Measured values published in patent US20220175893A1, “COMBINATIONS OF TANNASE AND PROBIOTIC FORMULATIONS AND METHODS OF USE FOR IMPROVING TANNIN METABOLISM” (THE TEXAS A&M UNIVERSITY SYSTEM, priority 2019, published 2022).
Where two headings read alike, the source gives them in different places. Marks after values point to notes of the source that are not given here.

Key:
[1] = Stability of gallic acid at pH 5.5 over 24 h; format: physicochemical
[2] = test system: rabbits; assay: Oral LD50 in rabbits (literature); format: in vivo, rabbit; conditions: for equivalent dose of the LD50 for a human equivalent of 75 kg: for 10 days
Method: For a human equivalent of 75 kg, the equivalent dose would be 210,000 and 255,000 mg/day for 10 days.

[3] = test system: rabbits; conditions: cited from earlier work
[4] = target: T1, Tannase sourced from Aspergillus oryzae (Aspergillus oryzae, UniProt P78581); assay: Tannase (10^−3 U/mL) hydrolysis of galloyl glycosides, LC-MS; format: biochemical
T1 construct: purchased
Method: Standards solutions of monogalloyl glucose, pentagalloyl glucose, and a gallotannin isolate were incubated with tannase at 10^−3 U/mL to characterize the by-products and relative rates of galloyl derivative hydrolysis. 250 μL of 200 ppm monogalloyl glucose or pentagalloyl glucose were incubated with 650 μL of buffer set to the enzyme's optimum conditions (pH 5.5, 0.1 M citric acid buffer, 30° C.), and 100 μL of tannase 10^−3 U/mL for final standard concentrations of 50 ppm. […] Experiments were performed in a static water bath and prepared in triplicate for each time point at 0, 0.016, 0.033, 0.050, 0.083, 0.167, 0.5, 1, 1.5, 2, 3, 4 h. To end enzymatic activity, solutions were immediately diluted with 1000 μL 0.1% formic acid MeOH. Lastly, samples were filtered with a 0.45 μm syringe filter prior to LC-MS analysis.
Galloyl derivatives were characterized and quantified by use of LC-MS on a Thermo Finnigan HPLC. Separations were in reversed-phase using a Finnigan Surveyor HPLC coupled to a Surveyor PDA detector and gradient separations were performed using a Phenomenex Kinetex™ (Bannockburn, II) C18 column, (150×4.6 mm, 2.6 μm) at room temperature. Injections were made into the column by use of a 50 μL sample loop. […] A gradient was run of 0% Phase B for 2 min and changed to 10% Phase B in 4 min, 10% Phase B was held to 10 min, 10 to 40% Phase B in 25 min, and 40% to 65% Phase B in 35 min, 65% to 85% Phase B in 41 min, 85% was held to 49 min before returning to initial conditions. The electrospray interface worked in negative ionization mode. Source and capillary temperatures were set at 325° C., source voltage was 4.0 kV, capillary voltage was set at −47 V, and collision energy for MS/MS analysis was set at 35 eV. The instrument operated with sheath gas and auxiliary gas (N2) flow rates set at 10 units/min and 5 units/min, respectively. The instrument was tuned specifically for pentagalloyl glucose. […] Digalloyl glucoses, and trigalloyl glucoses were quantified at 280 nm and reported as equivalents of monogalloyl glucose. Tetragalloyl glucose and higher were quantified and reported as pentagalloyl glucose equivalents.
Tannase sourced from Aspergillus oryzae was incubated with standard solutions of monogalloyl glucose, pentagalloyl glucose, and a gallotannin isolate sourced from mango in an effort to characterize and quantify the intermediates formed during hydrolysis. […] Characterization of the different galloyl derivatives that can be formed during tannase hydrolysis is critical as they are likely to have different bio efficacies.

[5] = target: T2, tannase (Aspergillus oryzae, UniProt P78581); assay: Tannase (20 U/mL) hydrolysis to free gallic acid, rhodanine assay; format: biochemical
T2 construct: purchased
T2 sequence (P78581 19-588): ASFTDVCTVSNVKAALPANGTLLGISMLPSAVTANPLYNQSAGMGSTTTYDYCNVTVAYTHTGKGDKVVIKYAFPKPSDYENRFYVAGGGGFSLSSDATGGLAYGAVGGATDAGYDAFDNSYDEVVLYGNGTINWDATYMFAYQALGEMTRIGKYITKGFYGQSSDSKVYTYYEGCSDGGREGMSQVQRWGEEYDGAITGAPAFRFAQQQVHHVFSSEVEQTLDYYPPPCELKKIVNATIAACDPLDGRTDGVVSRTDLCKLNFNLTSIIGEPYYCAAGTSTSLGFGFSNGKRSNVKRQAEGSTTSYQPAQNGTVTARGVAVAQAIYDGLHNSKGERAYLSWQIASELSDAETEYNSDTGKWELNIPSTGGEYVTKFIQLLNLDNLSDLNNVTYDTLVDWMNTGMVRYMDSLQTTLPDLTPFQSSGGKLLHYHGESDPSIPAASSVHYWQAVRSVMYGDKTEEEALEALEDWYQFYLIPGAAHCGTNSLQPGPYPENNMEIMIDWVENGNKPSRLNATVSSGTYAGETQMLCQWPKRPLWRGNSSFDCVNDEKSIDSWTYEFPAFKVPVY
Method: 200 uL of 641±16 and 2051±46 ppm GAE gallotannin isolate was aliquotted into test tubes and made up to 1 mL with 20 U/mL tannase hydrated in pH 5.5, 0.1 M citrate buffer. Samples were incubated for 0, 0.16 (10 min), 0.5, 1, 2, 4, 6, 12, and 24 h at 35° C. in a static water bath. After each time point had elapsed, 1 mL of 0.1% formic acid MeOH was added to each test tube. 50 and 100 ppm monogalloyl glucose was also treated with tannase under the same conditions. The total pro-gallic acid content of the gallotannin isolate and monogalloyl glucose were quantified by the colorimetric rhodanine assay modified from Inoue & Hagerman (1988). 600 μL of 0.667% rhodanine in methanol was added to 400 μL of hydrolyzed tannin fraction sample. After 10 min, 400 μL of 0.5 M NaOH was added to develop color for 20 min until bringing the final volume to 10 mL with deionized water. Absorbance was measured at 520 nm.

[6] = test system: 3T3-L1 adipocytes; conditions: cited from earlier work

Compound: O=C(O)c1cc(O)c(O)c(O)c1 [Gallic Acid, gallic acid]
- stability of gallic acid at the conditions of the method ([1]; 50 and 100 ppm gallic acid in pH 5.5 buffer, after 24 h): did not show any indication of degradation
- Gallic acid concentration (stability at pH 5.5) ([1]; gallic acid 50 mg/L, pH 5.5, 0 h): 48.2 ± 1.28 ^a mg/L
- Gallic acid concentration (stability at pH 5.5) ([1]; gallic acid 50 mg/L, pH 5.5, 1 h): 50.4 ± 0.45 ^b mg/L
- Gallic acid concentration (stability at pH 5.5) ([1]; gallic acid 50 mg/L, pH 5.5, 2 h): 51.2 ± 0.62 ^b mg/L
- Gallic acid concentration (stability at pH 5.5) ([1]; gallic acid 50 mg/L, pH 5.5, 12 h): 47.2 ± 0.87 ^b mg/L
- Gallic acid concentration (stability at pH 5.5) ([1]; gallic acid 50 mg/L, pH 5.5, 24 h): 49.4 ± 0.37 ^b mg/L
- Gallic acid concentration (stability at pH 5.5) ([1]; gallic acid 100 mg/L, pH 5.5, 0 h): 107 ± 3.07 ^a mg/L
- Gallic acid concentration (stability at pH 5.5) ([1]; gallic acid 100 mg/L, pH 5.5, 1 h): 102 ± 2.43 ^b mg/L
- Gallic acid concentration (stability at pH 5.5) ([1]; gallic acid 100 mg/L, pH 5.5, 2 h): 111 ± 1.63 ^b mg/L
- Gallic acid concentration (stability at pH 5.5) ([1]; gallic acid 100 mg/L, pH 5.5, 12 h): 97.9 ± 1.38 ^b mg/L
- Gallic acid concentration (stability at pH 5.5) ([1]; gallic acid 100 mg/L, pH 5.5, 24 h): 108 ± 1.11 ^b mg/L
- equivalent dose of the LD50 for a human equivalent of 75 kg [2]: 210,000 mg/day
- oral LD50 ([3]; rabbit, in vivo, po): 2800 mg/kg/day

Compound: O=C(OC[C@H]1O[C@@H](OC(=O)c2cc(O)c(O)c(O)c2)[C@H](OC(=O)c2cc(O)c(O)c(O)c2)[C@@H](OC(=O)c2cc(O)c(O)c(O)c2)[C@@H]1OC(=O)c1cc(O)c(O)c(O)c1)c1cc(O)c(O)c(O)c1 [pentagalloyl glucose]
- total pro-gallic acid content generated (molar basis) ([4]; 2 h incubation): 45.5±0.53%
- pentagalloyl glucose hydrolyzed ([4]; 2 h incubation, pH 5.5, 30° C.): 97.2±0.27%

Compound: monogalloyl glucose
- time to reach the same amount of generated gallic acid as pentagalloyl glucose at 2 h [4]: 4 h
- total pro-gallic acid content generated (molar basis) ([4]; 2 h incubation): 28.9±0.26%
- hydrolysis to free gallic acid ([5]; 1 h incubation with 20 U/mL of tannase): completely hydrolyzed to free gallic acid
- Free gallic acid from hydrolysis with 20 U/mL of tannase ([5]; monogalloyl glucose 50 mg/L, pH 5.5, 0 h): 1.26 ± 0.13 ^a mg/L
- Free gallic acid from hydrolysis with 20 U/mL of tannase ([5]; monogalloyl glucose 50 mg/L, pH 5.5, 1 h): 19.9 ± 0.13 ^b mg/L
- Free gallic acid from hydrolysis with 20 U/mL of tannase ([5]; monogalloyl glucose 50 mg/L, pH 5.5, 2 h): 20.2 ± 0.88 ^b mg/L
- Free gallic acid from hydrolysis with 20 U/mL of tannase ([5]; monogalloyl glucose 50 mg/L, pH 5.5, 12 h): 20.1 ± 0.25 ^b mg/L
- Free gallic acid from hydrolysis with 20 U/mL of tannase ([5]; monogalloyl glucose 50 mg/L, pH 5.5, 24 h): 19.9 ± 0.87 ^b mg/L
- Free gallic acid from hydrolysis with 20 U/mL of tannase ([5]; monogalloyl glucose 100 mg/L, pH 5.5, 0 h): 1.76 ± 0.25 ^a mg/L
- Free gallic acid from hydrolysis with 20 U/mL of tannase ([5]; monogalloyl glucose 100 mg/L, pH 5.5, 1 h): 39.7 ± 0.50 ^b mg/L
- Free gallic acid from hydrolysis with 20 U/mL of tannase ([5]; monogalloyl glucose 100 mg/L, pH 5.5, 2 h): 42.5 ± 1.01 ^b mg/L
- Free gallic acid from hydrolysis with 20 U/mL of tannase ([5]; monogalloyl glucose 100 mg/L, pH 5.5, 12 h): 39.2 ± 1.89 ^b mg/L
- Free gallic acid from hydrolysis with 20 U/mL of tannase ([5]; monogalloyl glucose 100 mg/L, pH 5.5, 24 h): 35.7 ± 3.14 ^b mg/L

Compound: O=C(OC[C@H]1O[C@@H](OC(=O)c2cc(O)c(O)c(OC(=O)c3cc(O)c(O)c(O)c3)c2)[C@H](OC(=O)c2cc(O)c(O)c(OC(=O)c3cc(O)c(O)c(O)c3)c2)[C@@H](OC(=O)c2cc(O)c(O)c(OC(=O)c3cc(O)c(O)c(O)c3)c2)[C@@H]1OC(=O)c1cc(O)c(O)c(OC(=O)c2cc(O)c(O)c(O)c2)c1)c1cc(O)c(O)c(OC(=O)c2cc(O)c(O)c(O)c2)c1 [tannic acid]
- equivalent dose of the LD50 for a human equivalent of 75 kg [2]: 255,000 mg/day
- margin of the highest selected study dose (566 mg/L) below the LD50 dose ([2]; human equivalent of 75 kg): 451 fold
- oral LD50 ([3]; rabbits, for 10 days): 3400 mg/kg/day

Compound: Oc1cccc(O)c1O [PG, pyrogallol]
- adipogenesis and lipid accumulation [6]: inhibit adipogenesis and reduce lipid accumulation
- thermogenesis [6]: promotes thermogenesis
